Data reported in PubChem BioAssay AID463204 (Broad Institute, 2010).
Calls of active or inactive are those of the source.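 Rule for the calls: active = AC50 no more than ten times the top concentration tested, that is within one log above it; inconclusive = flat curve fit with activity between 30% and 70%, or invalid poor fit; inactive = AC50 beyond ten times the top tested dose.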

What follows are molecules tested on S. cerevisiae Mot1-301 ts growth rescue, BacTiter-Glo ATP luminescence (assay: growth rescue of Mot1-301 ts yeast, confirmation, SUMOylation pathway inhibitor project, whole organism, S. cerevisiae, Mot1-301 ts mutant, luminescence, dose retest (AID 463204);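 note: growth at restrictive 38.5 degrees C of Mot1-301 OY566 strain; actives raise luminescence by restoring growth of the ts mutant at high temperature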).

| SMILES | AC50 |
| --- | --- |
| CCCCNC(=O)c1ccccc1NC(=O)C1=C(C)OCCS1 | > 42 µM (inactive) |
| COC(CNC(=O)c1cn(C)c2ccc(S(=O)(=O)N3CCOCC3)cc2c1=O)OC | > 42 µM (inactive) |
| Cc1cccc(OCc2nnc(SCC(=O)O)n2-c2ccccc2)c1 | > 42 µM (inactive) |
| COc1ccc(C(=O)O/N=C(\N)c2ccccc2)cc1OC | > 42 µM (inactive) |
| N#C/C(=C\c1c(N(Cc2ccccc2)Cc2ccccc2)nc2ccccn2c1=O)C(N)=O | > 42 µM (inactive) |
| O=C(N1CCOCC1)C1(S(=O)(=O)c2ccccc2)CC=CC1 | > 42 µM (inactive) |
| Cc1ccc(NC(=O)C(=O)NCC2CCCN2S(=O)(=O)c2cccs2)cc1 (stereo not drawn) | > 42 µM (inactive) |
| CCOc1ccc(S(=O)(=O)N2CCN(C(=O)CN3C(=O)NC4(CCCC4)C3=O)CC2)cc1 | > 42 µM (inactive) |
| CCCN(CC1CC1)C(=O)COc1ccccc1C(=O)NCc1ccccc1 | > 42 µM (inactive) |
| CC(C)n1c(O)c(N=Nc2ccccn2)c2ccccc21 | > 42 µM (inactive) |
| CCOc1ccc(N(CC(=O)NC2CCC(C)CC2)S(=O)(=O)c2c(C)noc2C)cc1 (stereo not drawn) | > 42 µM (inactive) |
| O=S(=O)(NCc1ccco1)c1ccc2ccccc2c1 | > 42 µM (inactive) |
| CCN(CC)c1ccc(N=Cc2c(O)n(Cc3ccccc3)c(=O)[nH]c2=O)cc1 | > 42 µM (inactive) |
| CCn1c(=O)n(CC)c2cc(NC(=O)c3ccccc3Cl)ccc21 | > 42 µM (inactive) |
| O=c1[nH]nc(Cc2ccc(-c3ccccc3Cl)o2)c2ccccc12 | > 42 µM (inactive) |
| Cc1ccc(C)c(N2CCN(C(c3ccncc3)c3nnnn3Cc3ccccc3)CC2)c1 (stereo not drawn) | > 21 µM (inactive) |
| COc1cc2c(cc1OC)CN(C(=O)Cc1c(F)cccc1Cl)CC2 | > 42 µM (inactive) |
| Clc1ccccc1-c1ccc2ncnc(NCc3cccs3)c2c1 | 37 µM |
| Cc1ccc(S(=O)(=O)N2[C@@H](c3ccccc3F)C(C(=O)O)=CC[C@H]2c2ccc3c(c2)OCO3)cc1 | > 42 µM (inactive) |
| CCOC(=O)c1ccc(CNC(=O)Cn2nnc(-c3ccc(C)cc3)n2)o1 | > 42 µM (inactive) |
| Cc1ccc(S(=O)(=O)N2[C@@H](c3ccccc3)C(C(=O)O)=CC[C@H]2c2ccc(Cl)cc2)cc1 | 8.57 µM |
| CCc1ccc(-c2nc(SCC(=O)N3CCOCC3)n[nH]2)cc1 | > 42 µM (inactive) |
| CCN(CC)CCNc1ncnc2c1[nH]c1ccc(OC)cc12 | > 42 µM (inactive) |
| Cc1ccc(S(=O)(=O)Nc2n[nH]nc2C(=O)NC2CCCCC2)cc1 | > 42 µM (inactive) |
| CCOc1ccc(NC(=O)C2CC(=O)N3CCCN=C3S2)cc1 (stereo not drawn) | > 42 µM (inactive) |

| SMILES | AC50 |
| --- | --- |
| Cc1ccc(N/C=C(\C#N)c2ccc(OCCCF)cc2)cc1 | > 42 µM (inactive) |
| CC1(C)CC(=O)c2cnc(NC(=O)CSc3nc4ccccc4o3)nc2C1 | > 42 µM (inactive) |
| Cc1cc(F)ccc1S(=O)(=O)Nc1ccccc1C(=O)Nc1ccc2[nH]c(=O)[nH]c2c1 | > 42 µM (inactive) |
| CN/C(=C/[N+](=O)[O-])NCCSCc1ccc(CN(C)C)o1 | > 42 µM (inactive) |
| CC1CC(N(C(=O)c2ccccc2Cl)c2ccccc2)c2ccccc2N1 (stereo not drawn) | > 42 µM (inactive) |
| Cc1ccc(C(C[N+](=O)[O-])c2c(C)[nH]n(-c3ccccc3)c2=O)cc1 (stereo not drawn) | 6.06 µM |
| COc1cccc(C2/C(=C(/O)c3ccccc3)C(=O)C(=O)N2Cc2ccco2)c1 (stereo not drawn) | > 42 µM (inactive) |
| COc1c2ccoc2nc2c(OC)c(OC[C@@H](O)C(C)(C)O)ccc12 | > 42 µM (inactive) |
| Nn1c(SCc2cc([N+](=O)[O-])cc3c2OCOC3)nnc1-c1ccccn1 | > 42 µM (inactive) |
| CCOC(=O)C(NC(=O)c1ccccc1)(N1CCOCC1)C(F)(F)F (stereo not drawn) | > 42 µM (inactive) |
| CC(=O)Nc1cccc(NC(=S)Nc2ccc(F)cc2F)c1 | > 42 µM (inactive) |
| Cc1ccc(C)c(-n2nnnc2SCC(=O)Nc2c(C)n(C)n(-c3ccccc3)c2=O)c1 | > 42 µM (inactive) |
| COc1ccc(S(=O)(=O)Cc2ccc(C(=O)NCc3cccs3)o2)cc1 | > 42 µM (inactive) |
| COc1ccc(C2=NN(C(=S)Nc3ccccc3)C(c3ccccc3)C2)cc1 (stereo not drawn) | > 42 µM (inactive) |
| CCOC(=O)C1CCN(C(=O)c2sccc2Cl)CC1 | > 42 µM (inactive) |
| Cc1sc(NC(=O)c2ccc(F)cc2)c(CN2CCCCCC2)c1C | > 42 µM (inactive) |
| CCNCCNC(=O)c1c(O)c2c([nH]c1=O)CCCC2 | > 42 µM (inactive) |
| CC(=O)Nc1ccc(S(=O)(=O)Nc2ccc3c(c2)C(=O)OC3)cc1 | > 42 µM (inactive) |
| CC(=O)Nc1sc2c(c1C(c1ccc(F)cc1)N1CCOCC1)CCCC2 (stereo not drawn) | 11.8 µM |
| CC(=O)c1ccccc1C(=O)N1CCCC(N2CCN(Cc3ccc4c(c3)OCO4)CC2)C1 (stereo not drawn) | > 42 µM (inactive) |
| Cc1nc(CSc2nnc3scc(-c4ccccc4)n23)cs1 | > 42 µM (inactive) |
| Cc1nn(Cc2ccc(C(=O)Nc3ccccc3C(F)(F)F)o2)c(C)c1Br | > 42 µM (inactive) |
| C/C(=N\N1CCN(Cc2ccccc2Cl)CC1)c1ccc([N+](=O)[O-])cc1 | > 42 µM (inactive) |
| O=C(COC(=O)c1ccccc1SCC(=O)N1CCCC1)NC1CCCCC1 | > 42 µM (inactive) |
| COCCN(C(=O)c1csnn1)C(C(=O)NC1CCCCC1)c1ccccc1 (stereo not drawn) | > 42 µM (inactive) |

| SMILES | AC50 |
| --- | --- |
| CCCCc1ccc(S(=O)(=O)NNC(=S)NCc2ccco2)cc1 | > 42 µM (inactive) |
| CC(C)(c1ccccc1)c1ccc(OCCN2CCOCC2)cc1 | > 42 µM (inactive) |
| COc1ccccc1-n1c(O)c(/C=C2\C=Nc3ccccc32)c(=O)[nH]c1=O | > 42 µM (inactive) |
| CCOc1cc(/C=N/NC(=O)C(=O)N/N=C/c2ccc(O)c(OCC)c2)ccc1O | > 42 µM (inactive) |
| CCc1c(C(=O)N2CCN(c3ccccc3F)CC2)[nH]c(C)c1C(C)=O | > 42 µM (inactive) |
| COc1ccc(NC(=O)Cn2nnc(C(=O)Nc3ccc(F)c(Cl)c3)c2N)cc1 | > 42 µM (inactive) |
| COC(=O)c1ccc(Cn2cc(Cl)cn2)cc1 | > 42 µM (inactive) |
| CC1CCN(CCCOc2ccc(OCc3ccccc3)cc2)CC1 | > 42 µM (inactive) |
| CC(N=C(NC#N)Nc1ccncc1)C(C)(C)C (stereo not drawn) | > 42 µM (inactive) |
| CC(C)CC(=O)Nc1ccc(C(=O)CN2C(=O)NC3(CCOc4ccccc43)C2=O)cc1 (stereo not drawn) | > 42 µM (inactive) |
| COc1ccc(OC)c(NC(=O)CNC(=O)Cn2ccc3ccccc3c2=O)c1 | > 42 µM (inactive) |
| S=c1[nH]ccn1-c1cccc(Cl)c1 | > 42 µM (inactive) |
| Oc1ccc(Br)cc1/C=N/n1c(COc2ccccc2)n[nH]c1=S | 14.2 µM |
| COC(=O)[C@@]12CCCCN1[C@H](c1ccc(-c3cccc(Cl)c3)c(OC)c1)[C@H]1C(=O)N(C)C(=O)[C@H]12 | > 42 µM (inactive) |
| Cc1nc2ccccc2n(CC(=O)Nc2cc(Cl)cc(Cl)c2)c1=O | > 42 µM (inactive) |
| CCNC(=O)/C(C#N)=C/c1c(N2CCCCCC2)nc2ccccn2c1=O | > 42 µM (inactive) |
| O=C(NCCN1CCOCC1)Nc1ccc(Cl)cc1Cl | > 42 µM (inactive) |
| COc1ccc(CCC(=O)Nc2ccc3c(c2)OCO3)cc1 | > 42 µM (inactive) |
| Cc1ccnc(NC(=O)CC(c2ccccc2)c2ccccc2)n1 | 29.8 µM |
| NC(=O)CC(NC(=S)NCc1ccccc1)C(=O)O (stereo not drawn) | > 42 µM (inactive) |
| CCOC(=O)c1sc2ncn(C(CC)C(=O)OCC)c(=O)c2c1C (stereo not drawn) | > 42 µM (inactive) |
| CCc1nnc2n1N=C(c1ccc(Cl)cc1)CS2 | > 42 µM (inactive) |
| Cc1ccc(NC(=O)/C=N/OCC(=O)NCc2ccccc2Cl)cc1 | > 42 µM (inactive) |
| CCOC(=O)c1cccc(NC(=O)C2CCCN(S(=O)(=O)c3c(C)n[nH]c3C)C2)c1 (stereo not drawn) | > 42 µM (inactive) |
| CC(=O)Nc1cccc(OCC(O)Cn2c(C)nc3ccccc32)c1 (stereo not drawn) | > 42 µM (inactive) |

| SMILES | AC50 |
| --- | --- |
| CC1CCN(CCCCOc2ccc(Cl)cc2)CC1 | > 42 µM (inactive) |
| COC/C=C/C1=CC2=CC(=O)C(C)(OC(=O)c3cnc4ccccc4n3)C(=O)C2=CN1CCOC (stereo not drawn) | > 42 µM (inactive) |
| CCC(C)[C@H]1COCCS(=O)(=O)N1Cc1ccc(C)cc1 (stereo partly drawn) | > 42 µM (inactive) |
| COc1ccc(-c2nc3c(c(SCC(=O)N4CCOCC4)n2)Cc2c(CO)cnc(C)c2O3)cc1 | > 42 µM (inactive) |
| CCN1CCN(CC(=O)N2N=CCC2c2ccccc2)CC1 (stereo not drawn) | > 42 µM (inactive) |
| Cc1nc(SCC(=O)O)n[nH]1 | > 42 µM (inactive) |
| COCCn1c(C)cc(C(=O)CN2C(=O)NC3(CCCCCCC3)C2=O)c1C | > 42 µM (inactive) |
| Cc1cc(NC(=O)CCC(=O)N(c2cccnc2)C(C(=O)NC2CCCC2)c2ccccc2)no1 (stereo not drawn) | > 42 µM (inactive) |
| O=S(=O)(Cc1ccccc1)NCc1ccccn1 | > 42 µM (inactive) |
| Cc1ccc(N(CC(=O)Nc2cccc(C)c2)S(=O)(=O)c2cccc3nonc23)cc1 | > 21 µM (inactive) |
| COc1cc(/C=N/NC2=NS(=O)(=O)c3ccccc32)cc(OC)c1OC | > 42 µM (inactive) |
| O=C(NCC(=O)N(c1ccccc1)C(C(=O)NCC1CCCO1)c1ccccc1)c1cccs1 (stereo not drawn) | > 42 µM (inactive) |
| Fc1ccc2c(c1)nnn2C1CCN(Cc2nnnn2C2CCCCC2)CC1 | > 42 µM (inactive) |
| COc1ccc2c(c1)OC[C@H]1[C@H]2N2C(=O)c3cc(F)ccc3NC(=O)[C@@]2(C)[C@H]1c1ccccc1 | 3.15 µM |
| O=C(CCSc1nnnn1-c1ccccc1)N1CCOCC1 | > 42 µM (inactive) |
| O=[N+]([O-])c1cc([N+](=O)[O-])c2cc3ccccc3nc2c1 | 2.63 µM |
| COc1cc2c(cc1OC)C(c1ccccc1C)CC(=O)N2 (stereo not drawn) | > 42 µM (inactive) |
| CN(c1ccccc1)c1ccc(/C=C/[N+](=O)[O-])cc1 | 5.85 µM |
| CC(=O)N1CCc2cc(S(=O)(=O)CCC(=O)N3CCN(C(=O)c4ccco4)CC3)ccc21 | > 42 µM (inactive) |
| Cc1ccc(CSCCNC(=O)c2ccc(NS(C)(=O)=O)cc2)cc1 | > 42 µM (inactive) |
| Cn1c(C(=O)NCCc2ccsc2)cc2c(=O)n(C)c3ccccc3c21 | > 42 µM (inactive) |
| CCOC(=O)C1=C(N)c2ccccc2CC1C1CCCC1 (stereo not drawn) | > 42 µM (inactive) |
| O=c1[nH]c(CN2CCN(CCO)CC2)nc2ccccc12 | > 42 µM (inactive) |
